Experimental data taken from PMC8068801, “Novel Benzenesulfonate Scaffolds with a High Anticancer Activity and G2/M Cell Cycle Arrest” (Cancers, 2021).
Read-outs that look alike come from different tables or passages of the source.

Tests used:
K562 cells = assay: MTS cytotoxicity assay, K562; type: cell-based, human; conditions: for IC50: Homo sapiens, K562, 72 h incubation, MTS; for Selectivity index, K562: normal fibroblasts NHDF vs K562
From the text: (§1) M. Rusin from the Maria Sklodowska-Curie Memorial Cancer Centre and Institute of Oncology in Gliwice, Poland. […] G. Kramer-Marek from the Institute of Cancer Research in London, United Kingdom. The human suspension chronic myelogenous leukemia cell line K562 and pancreas ductal adenocarcinoma cell line PANC-1 were purchased from Sigma-Aldrich (St. Louis, MO, USA), while the normal human dermal fibroblasts cell line NHDF were purchased from PromoCell. […] Each medium contained a combination of two antibiotics: penicillin and streptomycin (1% v/v; Gibco). All of these cell lines were grown under standard conditions at 37 °C with a 5% CO2 humidified atmosphere. Moreover, all of the cell lines were routinely tested for mycoplasma using the PCR technique with specific Mycoplasma primers to confirm that there was no contamination.
(§2) The assay was performed following a 72 h incubation with the various concentrations of the tested compounds. Then, 100 µL DMEM without phenol red with 20 µL of the CellTiter 96®AQueous One Solution-MTS (Promega, Promega, WI, USA) was added to each well and incubated for 1 h or 3 h (PANC-1) at 37 °C. The optical densities of the samples were measured at 490 nm using a multi-plate reader (Synergy 4, BioTek, Winooski, VT, USA). […] Each individual compound was tested in triplicate in a single experiment with each experiment being performed three or four times.

PANC-1 cells = assay: MTS cytotoxicity assay, PANC-1; type: cell-based, human; conditions: for IC50: Homo sapiens, PANC-1, 72 h incubation, MTS
From the text: as §1, §2

NHDF cells = assay: MTS cytotoxicity assay, normal fibroblasts NHDF; type: cell-based; conditions: NHDF normal human fibroblasts, 72 h incubation
From the text: as §1, §2

A549 cells [1] = assay: MTS cytotoxicity assay, A549; type: cell-based, human; conditions: for IC50: A549, 72 h incubation, MTS; for Selectivity index, A549: NHDF vs A549
From the text: as §1, §2

HCT 116 p53^+/+ cells = assay: MTS cytotoxicity assay, HCT 116 p53+/+; type: cell-based, human; conditions: for IC50: Homo sapiens, HCT 116 p53^+/+, 72 h incubation, MTS
From the text: as §1, §2

Lck = target: T1, Lck (Homo sapiens, UniProt P06239); assay: Tyrosine kinase assay (Kinase Selectivity TK-2, ADP-Glo); type: biochemical; conditions: read-out: Inhibitory Effect of the Tyrosine Kinase Activity, Lck
T1 construct: purchased Promega
Procedure: (§3) Assays using the Kinase Selectivity TK-2 profiling systems and ADP-Glo Kinase Assay (both from Promega) were performed to determine the inhibition of the non-receptor tyrosine kinases. The protocol was previously designed and described by our group in reports. The experiments were performed at least four times. The data are expressed as the percentage of the inhibition activity of tyrosine kinase after treatment with the tested derivatives.

Src = target: T2, Src (Homo sapiens, UniProt P12931); assay: as above; type: biochemical; conditions: read-out: Inhibitory Effect of the Tyrosine Kinase Activity, Src
T2 construct: purchased Promega
Procedure: as §3

ABL1 = target: T3, ABL1 (Homo sapiens, UniProt P00519); assay: as above; type: biochemical; conditions: read-out: Inhibitory Effect of the Tyrosine Kinase Activity, ABL1
T3 construct: purchased Promega
Procedure: as §3

Lyn B = target: T4, Lyn B (Homo sapiens, UniProt P07948); assay: as above; type: biochemical; conditions: read-out: Inhibitory Effect of the Tyrosine Kinase Activity, Lyn B
T4 construct: purchased Promega
Procedure: as §3

CSK = target: T5, CSK (Homo sapiens, UniProt P41240); assay: as above; type: biochemical; conditions: read-out: Inhibitory Effect of the Tyrosine Kinase Activity, CSK
T5 construct: purchased Promega
Procedure: as §3

BRK = target: T6, BRK (Homo sapiens, UniProt Q13882); assay: as above; type: biochemical; conditions: read-out: Inhibitory Effect of the Tyrosine Kinase Activity, BRK
T6 construct: purchased Promega
Procedure: as §3

Fyn A = target: T7, Fyn A (Homo sapiens, UniProt P06241); assay: as above; type: biochemical; conditions: read-out: Inhibitory Effect of the Tyrosine Kinase Activity, Fyn A
T7 construct: purchased Promega
Procedure: as §3

BTK = target: T8, BTK (Homo sapiens, UniProt Q06187); assay: as above; type: biochemical; conditions: read-out: Inhibitory Effect of the Tyrosine Kinase Activity, BTK
T8 construct: purchased Promega
Procedure: as §3

U-251 cells [2] = assay: MTS cytotoxicity assay, U-251; type: cell-based, human; conditions: for IC50: Homo sapiens, U-251, 72 h incubation, MTS
From the text: as §1, §2

MCF-7 cells = assay: MTS cytotoxicity assay, MCF-7; type: cell-based, human; conditions: for IC50: Homo sapiens, MCF7, MCF-7, 72 h incubation, MTS; for Selectivity index, MCF-7: NHDF vs MCF-7
From the text: as §1, §2

HCT 116 p53^−/− cells = assay: MTS cytotoxicity assay, HCT 116 p53-/-; type: cell-based, human; conditions: for IC50: Homo sapiens, HCT 116 p53^−/−, 72 h incubation, MTS; for Selectivity index, HCT 116 p53 −/−: NHDF vs HCT 116 p53 −/−
From the text: as §1, §2

A549 cells [3] = system: A549 cells; parameters: method as in PMID 24530495; conditions: cited from earlier work
U-251 cells [4] = assay: Cell cycle assay (Muse Cell-Cycle Kit), U-251; type: cell-based, human; conditions: U-251, 0.13 µM to 2 µM, 24 h; 32.3% in untreated cells
Procedure: The K562, U-251 and NHDF cells were seeded in 3 cm Petri dishes (Nunc) at a density of 250,000 cells per well and incubated under standard conditions at 37 °C for 24 h. […] After a 24 h treatment, the assays were performed using a Muse Cell-Cycle Kit (Millipore, Burlington, MA, USA) according to the supplier’s instructions. Briefly, the cells were collected, washed with cold PBS and centrifuged at 300 g for 5 min. Afterwards, the cells were fixed in ice cold 70% ethanol and stored at −20 °C overnight. The next day, the cells were washed with cold PBS, centrifuged and resuspended in 200 μL of the Muse™ Cell Cycle Reagent. The samples were incubated for 30 min at room temperature in the dark. After staining, the cellular subpopulation values in the individual cell cycle phases were estimated using a cell cycle analysis using a Muse Cell Analyzer (Millipore). The experiments were performed at least four times.

T1 sequence (P06239 whole entry): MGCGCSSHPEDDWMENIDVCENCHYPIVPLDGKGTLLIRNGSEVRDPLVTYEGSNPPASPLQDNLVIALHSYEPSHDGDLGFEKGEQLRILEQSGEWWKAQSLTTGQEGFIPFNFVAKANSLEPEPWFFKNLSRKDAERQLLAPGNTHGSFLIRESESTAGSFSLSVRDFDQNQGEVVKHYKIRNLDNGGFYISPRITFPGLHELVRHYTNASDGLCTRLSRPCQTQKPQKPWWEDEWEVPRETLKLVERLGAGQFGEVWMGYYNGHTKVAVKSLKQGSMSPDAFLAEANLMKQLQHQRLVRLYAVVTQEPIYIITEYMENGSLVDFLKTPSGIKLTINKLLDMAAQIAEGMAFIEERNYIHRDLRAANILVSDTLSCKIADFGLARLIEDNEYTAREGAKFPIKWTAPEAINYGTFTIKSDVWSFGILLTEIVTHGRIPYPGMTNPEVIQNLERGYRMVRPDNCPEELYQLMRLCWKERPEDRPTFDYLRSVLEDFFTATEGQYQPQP
T8 sequence (Q06187 whole entry): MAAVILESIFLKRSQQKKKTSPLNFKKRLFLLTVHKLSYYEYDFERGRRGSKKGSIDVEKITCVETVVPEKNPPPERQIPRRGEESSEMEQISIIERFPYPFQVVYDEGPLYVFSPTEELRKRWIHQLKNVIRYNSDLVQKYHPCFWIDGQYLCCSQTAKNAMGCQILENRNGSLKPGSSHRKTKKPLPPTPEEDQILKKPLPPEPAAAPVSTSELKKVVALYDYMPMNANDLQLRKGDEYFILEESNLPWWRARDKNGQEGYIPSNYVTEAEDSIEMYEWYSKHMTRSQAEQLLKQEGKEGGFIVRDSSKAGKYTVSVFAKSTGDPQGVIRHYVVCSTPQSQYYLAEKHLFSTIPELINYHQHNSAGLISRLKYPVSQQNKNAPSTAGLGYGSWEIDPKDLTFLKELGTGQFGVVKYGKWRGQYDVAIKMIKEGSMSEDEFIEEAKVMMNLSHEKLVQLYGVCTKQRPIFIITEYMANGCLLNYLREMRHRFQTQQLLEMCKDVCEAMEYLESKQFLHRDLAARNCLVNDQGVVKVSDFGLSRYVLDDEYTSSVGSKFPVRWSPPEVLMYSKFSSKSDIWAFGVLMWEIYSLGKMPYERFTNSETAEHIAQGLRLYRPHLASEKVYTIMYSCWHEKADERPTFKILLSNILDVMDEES
T6 sequence (Q13882 whole entry): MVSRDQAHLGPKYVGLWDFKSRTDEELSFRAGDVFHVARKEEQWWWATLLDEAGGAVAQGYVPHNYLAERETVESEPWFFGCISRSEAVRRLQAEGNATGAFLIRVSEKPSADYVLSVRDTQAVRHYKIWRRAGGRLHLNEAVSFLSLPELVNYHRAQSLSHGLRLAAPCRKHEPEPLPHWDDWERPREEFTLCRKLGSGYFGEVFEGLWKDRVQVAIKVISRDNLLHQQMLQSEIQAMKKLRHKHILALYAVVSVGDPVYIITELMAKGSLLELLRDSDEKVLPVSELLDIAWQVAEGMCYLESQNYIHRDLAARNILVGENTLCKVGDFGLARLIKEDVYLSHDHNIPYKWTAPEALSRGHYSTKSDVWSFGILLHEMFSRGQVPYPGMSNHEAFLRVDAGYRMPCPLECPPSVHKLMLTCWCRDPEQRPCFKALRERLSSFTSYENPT
T3 sequence (P00519 whole entry): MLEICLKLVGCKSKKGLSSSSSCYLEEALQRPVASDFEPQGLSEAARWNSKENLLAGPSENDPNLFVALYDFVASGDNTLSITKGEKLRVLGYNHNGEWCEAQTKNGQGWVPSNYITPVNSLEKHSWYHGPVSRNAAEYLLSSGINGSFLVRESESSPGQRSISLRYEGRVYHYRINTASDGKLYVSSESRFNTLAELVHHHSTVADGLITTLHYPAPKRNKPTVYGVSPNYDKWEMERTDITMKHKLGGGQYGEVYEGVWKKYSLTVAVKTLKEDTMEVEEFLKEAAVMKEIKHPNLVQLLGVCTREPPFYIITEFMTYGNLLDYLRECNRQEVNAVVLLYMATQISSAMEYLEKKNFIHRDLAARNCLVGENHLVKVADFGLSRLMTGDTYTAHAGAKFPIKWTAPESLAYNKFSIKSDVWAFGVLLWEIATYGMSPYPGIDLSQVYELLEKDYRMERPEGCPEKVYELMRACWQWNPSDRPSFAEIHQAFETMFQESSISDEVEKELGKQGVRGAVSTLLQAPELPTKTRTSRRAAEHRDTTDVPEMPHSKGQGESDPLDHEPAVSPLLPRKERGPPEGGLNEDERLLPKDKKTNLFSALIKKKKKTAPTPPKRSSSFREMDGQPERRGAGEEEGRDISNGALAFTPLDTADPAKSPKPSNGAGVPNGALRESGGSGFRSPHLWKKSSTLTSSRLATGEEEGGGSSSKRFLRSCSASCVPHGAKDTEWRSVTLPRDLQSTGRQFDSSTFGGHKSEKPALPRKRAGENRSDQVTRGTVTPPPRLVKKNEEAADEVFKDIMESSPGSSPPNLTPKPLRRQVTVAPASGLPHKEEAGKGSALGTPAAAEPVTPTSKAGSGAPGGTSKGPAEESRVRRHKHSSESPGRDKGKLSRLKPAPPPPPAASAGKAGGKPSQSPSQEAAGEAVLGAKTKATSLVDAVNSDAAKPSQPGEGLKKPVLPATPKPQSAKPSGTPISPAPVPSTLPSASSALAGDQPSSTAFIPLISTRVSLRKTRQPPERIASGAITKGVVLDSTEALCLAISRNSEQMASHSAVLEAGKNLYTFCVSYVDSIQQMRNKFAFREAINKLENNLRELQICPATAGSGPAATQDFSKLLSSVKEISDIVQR
T5 sequence (P41240 whole entry): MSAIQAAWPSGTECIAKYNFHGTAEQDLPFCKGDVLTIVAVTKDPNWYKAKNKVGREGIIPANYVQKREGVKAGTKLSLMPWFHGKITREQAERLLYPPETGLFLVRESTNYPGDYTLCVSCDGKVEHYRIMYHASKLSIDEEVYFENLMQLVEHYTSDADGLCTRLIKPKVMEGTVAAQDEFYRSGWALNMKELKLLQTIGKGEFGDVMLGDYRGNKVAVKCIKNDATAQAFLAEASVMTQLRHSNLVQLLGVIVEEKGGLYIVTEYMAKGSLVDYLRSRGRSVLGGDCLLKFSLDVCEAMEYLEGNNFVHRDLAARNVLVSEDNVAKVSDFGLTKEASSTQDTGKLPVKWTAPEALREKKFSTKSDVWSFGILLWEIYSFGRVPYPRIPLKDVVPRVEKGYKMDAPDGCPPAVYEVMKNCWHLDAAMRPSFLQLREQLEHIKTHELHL
T7 sequence (P06241 whole entry): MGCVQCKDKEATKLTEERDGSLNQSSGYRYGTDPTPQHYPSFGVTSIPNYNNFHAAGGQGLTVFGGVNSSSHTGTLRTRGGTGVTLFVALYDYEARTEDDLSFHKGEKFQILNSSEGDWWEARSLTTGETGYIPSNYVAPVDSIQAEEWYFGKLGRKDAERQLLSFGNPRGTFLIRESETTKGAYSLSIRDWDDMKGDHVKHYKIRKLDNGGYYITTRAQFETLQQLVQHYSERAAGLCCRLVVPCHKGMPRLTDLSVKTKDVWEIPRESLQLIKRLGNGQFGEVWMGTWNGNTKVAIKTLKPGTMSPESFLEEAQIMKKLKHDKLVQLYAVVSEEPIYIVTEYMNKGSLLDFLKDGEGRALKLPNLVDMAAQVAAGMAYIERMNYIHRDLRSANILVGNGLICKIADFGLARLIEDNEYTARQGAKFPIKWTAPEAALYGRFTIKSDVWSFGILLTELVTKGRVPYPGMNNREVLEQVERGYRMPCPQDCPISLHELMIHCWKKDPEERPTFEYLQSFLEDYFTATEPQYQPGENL
T4 sequence (P07948 1-491 isoform P07948-2): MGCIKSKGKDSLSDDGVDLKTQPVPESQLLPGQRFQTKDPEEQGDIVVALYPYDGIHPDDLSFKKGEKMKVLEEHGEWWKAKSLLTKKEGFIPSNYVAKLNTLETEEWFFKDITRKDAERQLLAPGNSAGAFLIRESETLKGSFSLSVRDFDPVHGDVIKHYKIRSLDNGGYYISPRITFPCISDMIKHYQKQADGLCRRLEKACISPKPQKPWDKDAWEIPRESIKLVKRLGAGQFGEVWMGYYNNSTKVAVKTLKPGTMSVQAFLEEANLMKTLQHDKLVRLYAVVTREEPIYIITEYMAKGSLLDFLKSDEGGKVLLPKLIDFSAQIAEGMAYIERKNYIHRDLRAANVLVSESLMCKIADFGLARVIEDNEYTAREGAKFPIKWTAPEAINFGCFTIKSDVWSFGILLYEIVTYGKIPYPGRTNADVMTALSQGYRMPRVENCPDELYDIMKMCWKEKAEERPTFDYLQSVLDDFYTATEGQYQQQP
T2 sequence (P12931 whole entry): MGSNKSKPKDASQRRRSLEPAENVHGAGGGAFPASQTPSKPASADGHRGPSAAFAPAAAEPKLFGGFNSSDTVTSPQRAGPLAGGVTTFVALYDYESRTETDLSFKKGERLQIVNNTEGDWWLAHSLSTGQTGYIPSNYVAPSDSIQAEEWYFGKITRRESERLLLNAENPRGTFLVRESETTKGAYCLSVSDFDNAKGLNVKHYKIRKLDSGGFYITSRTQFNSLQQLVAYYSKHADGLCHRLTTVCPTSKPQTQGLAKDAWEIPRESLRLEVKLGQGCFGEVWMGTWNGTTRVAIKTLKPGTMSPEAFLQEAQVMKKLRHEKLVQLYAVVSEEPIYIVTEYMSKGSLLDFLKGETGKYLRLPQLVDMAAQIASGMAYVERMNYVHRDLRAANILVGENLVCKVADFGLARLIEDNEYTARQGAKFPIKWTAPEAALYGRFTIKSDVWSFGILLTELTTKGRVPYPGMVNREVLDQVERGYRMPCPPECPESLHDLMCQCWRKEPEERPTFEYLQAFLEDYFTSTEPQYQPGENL

COc1ccccc1/C=C/c1nc(OS(=O)(=O)c2ccc(C)cc2)c2ccc(Cl)cc2n1 [BS3, 7-chloro-2-((E)-2-(2-methoxyphenyl)ethenyl)quinazolin-4-yl 4-methylbenzenesulfonate]
IC50 (K562 cells): 0.078 ± 0.027 µM | Selectivity index, K562 (K562 cells): 120.71 | IC50 (PANC-1 cells): 0.097 ± 0.03 µM | Selectivity index, PANC-1 (PANC-1 cells; NHDF vs PANC-1): 97.06 | IC50 (NHDF cells): 9.42 ± 1.65 µM | IC50 (A549 cells [1]): 7.65 ± 0.987 µM | IC50 (A549 cells [1]; Homo sapiens, A549, 72 h): 7.65 µM | Selectivity index, A549 (A549 cells [1]): 1.23 | IC50 (HCT 116 p53^+/+ cells): 0.363 ± 0.028 µM | Selectivity index, HCT 116 p53+/+ (HCT 116 p53^+/+ cells; NHDF vs HCT 116 p53+/+): 25.94 | inhibition at 0.5 µM (Lck): 42.6% | inhibition at 0.5 µM (Src): 2.73% | inhibition at 0.5 µM (ABL1): 0% | inhibition at 0.5 µM (Lyn B): 0% | inhibition at 0.5 µM (CSK): 0% | inhibition at 0.5 µM (BRK): 26.5% | inhibition at 0.5 µM (Fyn A): 34.1% | inhibition at 0.5 µM (BTK): 30.7% | IC50 (U-251 cells [2]): 1.76 ± 0.388 µM | Selectivity index, U-251 (U-251 cells [2]; NHDF vs U-251): 5.36 | IC50 (MCF-7 cells): 4.6 ± 1.02 µM | Selectivity index, MCF-7 (MCF-7 cells): 2.05 | IC50 (HCT 116 p53^−/− cells): 0.239 ± 0.03 µM | Selectivity index, HCT 116 p53 −/− (HCT 116 p53^−/− cells): 39.39

COc1ccc(/C=C/c2nc(OS(=O)(=O)c3ccc(C)cc3)c3ccccc3n2)c(OC)c1 [BS6, 2-((E)-2-(2,4-dimethoxyphenyl)ethenyl)quinazolin-4-yl 4-methylbenzenesulfonate]
IC50 (K562 cells): 2.7 ± 0.519 µM | Selectivity index, K562 (K562 cells): 9.26 | IC50 (PANC-1 cells): > 25 µM | IC50 (NHDF cells): > 25 µM | IC50 (A549 cells [1]; Homo sapiens, A549, 72 h): > 25 µM | Selectivity index, A549 (A549 cells [1]): 1.00 | IC50 (HCT 116 p53^+/+ cells): > 25 µM | inhibition at 0.5 µM (Lck): 37.3% | inhibition at 0.5 µM (Src): 0% | inhibition at 0.5 µM (ABL1): 0% | inhibition at 0.5 µM (Lyn B): 0% | inhibition at 0.5 µM (CSK): 21.1% | inhibition at 0.5 µM (BRK): 0% | inhibition at 0.5 µM (Fyn A): 62.6% | inhibition at 0.5 µM (BTK): 17.9% | IC50 (U-251 cells [2]): > 25 µM | IC50 (MCF-7 cells): 9.79 ± 1.23 µM | Selectivity index, MCF-7 (MCF-7 cells): 2.55 | IC50 (HCT 116 p53^−/− cells): 21.7 ± 1.19 µM | Selectivity index, HCT 116 p53 −/− (HCT 116 p53^−/− cells): 1.15

COc1c(NS(=O)(=O)c2ccc(C)cc2)cc(-c2ccc3ncnc(N4CCOCC4)c3c2)cc1C(N)=O [IV]
IC50 (A549 cells [3]): 2.18 µM

CC(=O)O[C@H]1C(=O)[C@@]2(C)[C@H]([C@H](OC(=O)c3ccccc3)[C@]3(O)C[C@H](OC(=O)[C@H](O)[C@@H](NC(=O)c4ccccc4)c4ccccc4)C(C)=C1C3(C)C)[C@]1(OC(C)=O)CO[C@@H]1C[C@@H]2O [paclitaxel, reference compound]
Fraction of cells in the G2/M phase (U-251 cells [4]): about 69.9%

COc1ccc(/C=C/c2nc(OS(=O)(=O)c3ccc(C)cc3)c3ccccc3n2)cc1 [BS5, 2-((E)-2-(4-methoxyphenyl)ethenyl)quinazolin-4-yl 4-methylbenzenesulfonate]
IC50 (K562 cells): 10.2 ± 0.819 µM | Selectivity index, K562 (K562 cells): 2.45 | IC50 (PANC-1 cells): > 25 µM | IC50 (NHDF cells): > 25 µM | IC50 (A549 cells [1]; Homo sapiens, A549, 72 h): > 25 µM | Selectivity index, A549 (A549 cells [1]): 1.00 | IC50 (HCT 116 p53^+/+ cells): > 25 µM | inhibition at 0.5 µM (Lck): 11.2% | inhibition at 0.5 µM (Src): 0% | inhibition at 0.5 µM (ABL1): 0% | inhibition at 0.5 µM (Lyn B): 0% | inhibition at 0.5 µM (CSK): 20.1% | inhibition at 0.5 µM (BRK): 20.2% | inhibition at 0.5 µM (Fyn A): 0% | inhibition at 0.5 µM (BTK): 8.59% | IC50 (U-251 cells [2]): > 25 µM | IC50 (MCF-7 cells): > 25 µM | IC50 (HCT 116 p53^−/− cells): > 25 µM

COc1ccc(/C=C/c2nc(NCCCN(C)C)c3ccccc3n2)cc1 [CP-31398, reference compound]
IC50 (K562 cells): 3.09 ± 0.36 µM | IC50 (PANC-1 cells): > 25 µM | IC50 (NHDF cells): 12.3 ± 0.54 µM | IC50 (A549 cells [1]; Homo sapiens): > 25 µM | IC50 (HCT 116 p53^+/+ cells): 18.6 ± 0.92 µM | IC50 (U-251 cells [2]): 18.8 ± 1.65 µM | IC50 (MCF-7 cells): 27 ± 2.1 µM | IC50 (HCT 116 p53^−/− cells): 26.3 ± 1.41 µM
